Tests used:
[1] = biological target: T1, HSAT, MetX, Rv3341, (His)6-MetX, (His)6-Rv3341 (Mycobacterium tuberculosis, UniProt P9WJY9); test: DTNB CoA release endpoint assay; type: biochemical
T1 construct: gene metXA

[2] = biological target: T2, S. aureus HSAT, HSAT homolog from S. aureus (Staphylococcus aureus, UniProt A0A447ZIT7); test: DTNB CoA release endpoint assay; type: biochemical; conditions: 1.0 mM L-homoserine, 1.0 mM acetyl-CoA, 5.0 mM MgCl2, Tris-Cl pH 7.4, 37 °C
T2 construct: gene metX; cloned in pET28b (His tag implied), expressed in E. coli BL-21 (DE3, plysS), Ni-NTA and gel filtration; 4QLO used for docking
T2 sequence (A0A447ZIT7 1-322): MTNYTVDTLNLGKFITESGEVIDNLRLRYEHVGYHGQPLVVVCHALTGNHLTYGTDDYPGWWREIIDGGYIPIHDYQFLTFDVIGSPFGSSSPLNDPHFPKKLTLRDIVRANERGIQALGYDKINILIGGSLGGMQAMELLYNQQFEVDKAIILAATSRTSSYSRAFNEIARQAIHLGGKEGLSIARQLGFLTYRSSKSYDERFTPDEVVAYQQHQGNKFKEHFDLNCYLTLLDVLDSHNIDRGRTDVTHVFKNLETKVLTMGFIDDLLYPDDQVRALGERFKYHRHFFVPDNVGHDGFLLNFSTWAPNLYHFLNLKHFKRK

T1 sequence (P9WJY9 whole entry, looked up): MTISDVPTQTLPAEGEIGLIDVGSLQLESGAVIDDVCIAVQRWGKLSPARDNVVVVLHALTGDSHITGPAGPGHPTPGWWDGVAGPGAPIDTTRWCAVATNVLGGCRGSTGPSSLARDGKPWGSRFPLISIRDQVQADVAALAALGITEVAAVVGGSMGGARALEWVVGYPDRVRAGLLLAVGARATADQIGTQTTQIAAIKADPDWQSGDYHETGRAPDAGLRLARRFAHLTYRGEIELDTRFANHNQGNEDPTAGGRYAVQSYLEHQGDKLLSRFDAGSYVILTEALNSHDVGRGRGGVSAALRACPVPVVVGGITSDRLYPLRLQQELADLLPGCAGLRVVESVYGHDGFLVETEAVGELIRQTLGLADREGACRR

SMILES	inhibition at 100 µM [1]	% inhibition at 100 μM [2]	% inhibition at 100 μM ([1]; 1.0 mM L-homoserine, 1.0 mM acetyl-CoA, 5.0 mM MgCl2, Tris-Cl pH 7.4, 37 °C)
CCOC(=O)/C(C#N)=C1\SS/C(=C(/C#N)C(=O)OCC)S1 [compound 2, NSC98363]	> 50%		
Oc1cc(CNC2CCCCC2)c(O)cc1CNC1CCCCC1 [compound 3, NSC48443]	> 50%	> 60%	
C/C(=N\NC(=S)N(C)C)c1ccccn1.[Cu][Br] [compound 4, NSC635448]		> 60%	> 50%
Cc1ccc(S(=O)(=O)SC/C=C/CSS(=O)(=O)c2ccc(C)cc2)cc1 [compound 5, NSC624158]	> 50%	> 60%	
COc1cc(-c2ccc(Nc3ccccc3C(=O)O)c(OC)c2)ccc1Nc1ccccc1C(=O)O [compound 6, NSC73735]	> 50%		
O=Nc1c(-c2cccc([N+](=O)[O-])c2)nc2ncccn12 [compound 7, NSC369066]	> 50%		
Oc1cc(-n2cccn2)c(O)cc1-n1cccn1 [compound 8, NSC645987]	> 50%		
